The results in this text go back to patent publication US8518942B2, “Caspase inhibitors and uses thereof” (Buck Institute for Research on Aging, priority 2008, dated 2013).

One experiment deals with T1, caspase-9 (Homo sapiens, UniProt P55211).
T1 construct: gift: Guy Salvesen's laboratory, Burnham Institute (La Jolla, Calif.)
T1 sequence (P55211 1-315 limits assumed): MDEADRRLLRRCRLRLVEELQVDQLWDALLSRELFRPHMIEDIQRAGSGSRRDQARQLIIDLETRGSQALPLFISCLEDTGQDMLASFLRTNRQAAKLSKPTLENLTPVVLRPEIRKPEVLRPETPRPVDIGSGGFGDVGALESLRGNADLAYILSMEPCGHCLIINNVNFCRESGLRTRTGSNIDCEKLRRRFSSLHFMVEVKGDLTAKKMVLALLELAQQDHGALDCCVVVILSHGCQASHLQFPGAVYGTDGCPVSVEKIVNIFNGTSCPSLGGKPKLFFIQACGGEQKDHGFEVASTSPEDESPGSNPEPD
T1 sequence (P55211 331-416 limits assumed): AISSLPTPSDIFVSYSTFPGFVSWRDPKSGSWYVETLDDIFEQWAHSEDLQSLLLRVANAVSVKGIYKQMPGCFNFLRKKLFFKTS
The experiment is described as follows: Irreversible inhibitor kinetic assay (progress curve), caspase-9, substrate Ac-LEHD-AFC. The format is biochemical. Conditions: casp-9; duplicate, SD included. The text has this: (§1) Caspases-3, -6, -7, -8, and -9 were provided by Guy Salvesen's laboratory at the Burnham Institute (La Jolla, Calif.). Caspase-1 was purchased from EMD Biosciences (San Diego, Calif.) and Caspase-2 was purchased from Biomol International (Plymouth Meeting, Pa.). Caspase substrates Ac-DEVD-AMC, Ac-VDVAD-AFC, and Ac-LEHD-AFC were purchased from EMD Biosciences (San Diego, Calif.) and Ac-VDVAD-AMC was purchased from Biomol International (Plymouth Meeting, Pa.). The proteolytic cleavage of N-acyl aminocoumarins by caspases was conducted in Dynatech Microfluor fluorescence 96-well microtiter plates, and readings were taken on a Molecular Devices Spectra Max Gemini XS instrument. The excitation wavelength was 370 nm and the emission wavelength was 455 nm for AMCA substrates, the excitation wavelength was 355 nm and the emission wavelength was 450 nm for peptidyl AMC substrates, and the excitation wavelength was 430 nm and the emission wavelength was 535 nm for peptidyl AFC substrates.
(§2) The kinact/Ki for inhibitors were determined under pseudo-first order conditions using the progress curve method (Eckici et al. (2006) J. Med. Chem., 49: 5728-5749; Bieth (1995) Meth. Enzymol., 248: 59-84). Assay wells contained a mixture of inhibitor and AMC or AFC substrate in buffer. Aliquots of caspase were added to each well to initiate the assay. Hydrolysis of the AMC or AFC substrate was monitored fluorometrically for 45 min. To determine the inhibition parameters, time points for which the control ([I]=0) was linear were used. For each inhibitor, a kobs was calculated for at least four different concentrations of inhibitors via a nonlinear regression of the data according to the equation P=(vi/kobs)[1−exp(−kobst) (where product formation=P, […], and the first-order rate constant=kobs). If kobs varied linearly with [I], then the association constant kass was determined by linear regression analysis using kobs=(kass[I])/(1+[S]/Km) where [S] is the concentration of the substrate. […] Inhibition was measured in duplicate and the average of is reported. […]

For the next experiment, the target named is T2, caspase-6 (Homo sapiens, UniProt P55212).
T2 construct: gift: Guy Salvesen's laboratory, Burnham Institute (La Jolla, Calif.)
T2 sequence (P55212 24-179 limits assumed): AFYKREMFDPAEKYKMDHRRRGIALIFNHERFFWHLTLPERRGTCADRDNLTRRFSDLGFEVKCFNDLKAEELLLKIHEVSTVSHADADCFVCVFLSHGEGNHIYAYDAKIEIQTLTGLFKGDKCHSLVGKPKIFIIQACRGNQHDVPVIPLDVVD
T2 sequence (P55212 194-293 limits assumed): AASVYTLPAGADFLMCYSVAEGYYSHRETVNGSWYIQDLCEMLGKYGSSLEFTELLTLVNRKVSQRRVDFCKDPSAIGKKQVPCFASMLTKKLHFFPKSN
The experiment is described as follows: Irreversible inhibitor kinetic assay (progress curve), caspase-6, substrate Ac-DEVD-AMC. The format is biochemical. As to conditions: casp-6; duplicate, SD included.
Text: as §1, §2

For `C[C@@](NC(=O)CCCC(=O)O)(c1cn([C@@H](CC(=O)O)C(=O)COc2c(F)c(F)cc(F)c2F)nn1)C1CCCCC1` [MJL-002i], the kinact/Ki on caspase-9 was 7,550 ± 1,650 s^−1/M^−1; at caspase-6, 32,950 ± 1,650 s^−1/M^−1.
Take `C[C@@](NS(=O)(=O)Cc1ccccc1)(c1cn([C@@H](CC(=O)O)C(=O)COc2c(F)c(F)cc(F)c2F)nn1)C1CCCCC1` [MJL-001i]: the kinact/Ki on caspase-9 was 18,250 ± 4,050 s^−1/M^−1; on caspase-6, 23,100 ± 1,900 s^−1/M^−1.
Turning to `C[C@@](NC(=O)Cc1ccccc1)(c1cn([C@@H](CC(=O)O)C(=O)COc2c(F)c(F)cc(F)c2F)nn1)C1CCCCC1` [MJL-003i], the kinact/Ki at caspase-9 is 28,100 ± 2,500 s^−1/M^−1; on caspase-6, 45,750 ± 450 s^−1/M^−1.
